From US20260144798A1, “Disruption of Vascular Smooth Muscle Relaxation by Carfilzomib May be the Primary Reason for CFZ-Induced Vascular Dysfunction” (AMGEN INC., priority 2019, published 2026)

Tests used:
[1] = tested on: P38 pathway; assay: Western blot for activation of p38 pathway in rat aortic rings; settings: 2.7 μM CFZ 1.5 hours, with or without indomethacin plus LNAME (FIG. 7)
Method: Aortas were isolated from 8-10 week old CD® (Sprague Dawley) rats (from Charles River Laboratories) in an ice-cold, oxygenated (95% O2, 5% CO2) Krebs-Henseleit buffer. The aortas were then carefully cleaned to remove perivascular fat and cut into 2-mm rings that were mounted between two stainless steel wires in the myograph chamber containing 8 mL of Krebs-Henseleit buffer in 95% O2 and 5% CO2 at 37° C. Rings were stretch until a final stretch of 10 mN (Newton) was reached and incubated for 30 mins for equilibration. The rings were constricted with 8 mL of 80 mM KPSS for 15 minutes, followed by 3 washes with the Krebs-Henseleit buffer until the force returned to the baseline stretch. The aorta were then treated for one of the following experiments: • For protein expression studies the aortic rings were pre-treated with 100 μM N(gamma)-nitro-L-arginine methyl ester (L-NAME; Sigma-Aldrich) and 10 μM indomethacin for 10 minutes prior to the pre-incubation with CFZ (Amgen Inc.) for 1.5 hours. The rings were then isolated for protein expression analysis. […]

[2] = tested on: isolated rabbit hearts and aortic strips; settings: cited from earlier work
[3] = tested on: rat aortic rings; assay: Nifedipine-induced relaxation of rat aortic rings; settings: pretreatment of aortic rings with CFZ (FIG. 2C)
Method: An isometric myograph (DMT 620M) was used for ex vivo measurement of vascular function. Eight-to 10-week old Sprague Dawley rats (purchased from Charles River Laboratories, Wilmington, MA) were first anesthetized with 3% isoflurane and then euthanized using inhaled desflurane. The aortas were isolated in an ice-cold, oxygenated (95% O2, 5% CO2) Krebs-Henseleit buffer (118.3 mM NaCl, 4.7 mM KCl, 1.2 mM MgSO4, 1.2 mM KH2PO4, 2.5 mM CaCl2, 25 mM NaHCO3, and 11.0 mM glucose; purchased from Sigma-Aldrich, St. Louis, MO). […] The tension of the aortic rings was continuously measured with the Lab Chart 7 data acquisition system (ADInstruments, Colorado Springs, CO). […]
To assess the effect of CFZ on vascular contraction, the aortic rings were pre-treated with or without CFZ for 2 hours, followed by treatment with an increasing concentration of phenylephrine (PE) from 10 nM to 1 μM. […] The contraction was continuously measured and plotted as percent contraction normalized to the response of KPSS. […] The relaxation was continuously measured and plotted as percent relaxation normalized to the response with 1 μM PE.

[4] = Highest applicable CFZ concentration in the myograph chamber (saturation, precipitation); format: physicochemical; settings: oxygenated myograph chamber, Krebs-Henseleit buffer
[5] = tested on: rat aortic rings; assay: Angiotensin induced contraction (AUC) of rat aortic rings; settings: LNAME+indomethacin, 2.7 μM CFZ 1.5 hour, 30 nM Angiotensin 30 min (FIG. 11)
Method: Following the two incubation the rings were treated with either vehicle or 2.7 μM CFZ for further 1.5 hours before addition of 30 nM Angiotensin for 30 min. Angiotensin induced transient contraction which returned to the baseline in 30 mins. Area Under the Curve (AUC) of angiotensin induced contraction was measured.
Aortic rings were incubated for 10 min with 100 μM LNAME+10 μM indomethacin (endothelium derived relaxing agents blockers) for 10 mins followed by addition of 10 μM SB 203580 (p38 inhibitor) or PF3644022 (MAPKAPK-2 inhibitor) in some rings for 10 more mins as indicated. This was followed by addition of 2.7 μM CFZ in some rings as indicated for 1.5 hour. 30 nM Angiotensin was added for 30 min. Angiotensin induced transient contraction which returned to the baseline in 30 mins.

In the case of `CC(C)C[C@H](NC(=O)[C@H](CCc1ccccc1)NC(=O)CN1CCOCC1)C(=O)N[C@@H](Cc1ccccc1)C(=O)N[C@@H](CC(C)C)C(=O)[C@@]1(C)CO1` [CFZ, carfilzomib], the “activation of p38 pathway” value [1] is given as “caused activation of P38 pathway with or without endothelium dependent relaxing factors”, the “coronary perfusion pressure, resting vascular tone, and spasmogenic effects” value [2] is given as “increased” and the “vasodilating effect induced by acetylcholine (ACh)” value [2] is given as “sharply reduced”. The “effect on vascular relaxation in the presence of nifedipine” value [3] was “did not appear to significantly affect vascular relaxation”, the highest CFZ concentration that could be applied; further increase gave saturated solution and precipitation [4] was 2.7 µM and the “angiotensin induced contraction, area under the curve” value [5] was “increased angiotensin induced contraction”.
